Measured values reported in ChEMBL document CHEMBL4602617, “Discovery and optimization of heteroaryl piperazines as potent and selective PI3Kδ inhibitors” (Bioorg Med Chem Lett, 2020).

Legend:
[1] = Volume of drug distribution in rat at 0.5 mg/kg, iv or 1 mg/kg, po; assay type: ADME, organism-based; details: in vivo
[2] = target: Voltage-dependent L-type calcium channel subunit alpha-1C (Homo sapiens, UniProt Q13936); assay: Inhibition of Cav1.2 (unknown origin)
[3] = target: Glycogen synthase kinase-3 alpha (Homo sapiens, UniProt P49840); assay: Inhibition of recombinant full length GST-tagged human GSK3alpha expressed in baculovirus expression system using Ser/Thr 09 peptide as substrate after 1 hr in presence of ATP by Z'LYTE assay
Cavia porcellus = species: Cavia porcellus; assay: Displacement of [3H]nitrobenzylthioinosine from adenosine transporter in guinea pig cerebral cortical membranes at 10 uM after 30 mins by radiometric scintillation analysis relative to control
[4] = target: Glutamate NMDA receptor (Rattus norvegicus) (UniProt P35439+Q00959+Q00960+Q00961+Q62645+Q8VHN2+Q9R1M7); assay: Displacement of [3H]TCP from glutamate NMDA receptor phencyclidine binding site in Wistar rat cerebral cortex at 10 uM incubated for 45 mins by radiometric scintillation analysis relative to control
[5] = target: Endothelin-1 receptor (Homo sapiens) (UniProt P25101); assay: Displacement of [125I]endothelin-1 from recombinant full length human recombinant ETA receptor expressed in CHO-S cells at 10 uM measured after 120 mins by radiometric scintillation analysis relative to control; assay type: cell-based
[6] = target: D(2) dopamine receptor (Homo sapiens) (UniProt P14416); assay: Displacement of [3H]spiperone from recombinant full length human recombinant D2S receptor expressed in CHO cells at 10 uM measured after 120 mins by radiometric scintillation analysis relative to control; assay type: cell-based
Chain of D(2) dopamine receptor (Homo sapiens) (P14416 whole entry): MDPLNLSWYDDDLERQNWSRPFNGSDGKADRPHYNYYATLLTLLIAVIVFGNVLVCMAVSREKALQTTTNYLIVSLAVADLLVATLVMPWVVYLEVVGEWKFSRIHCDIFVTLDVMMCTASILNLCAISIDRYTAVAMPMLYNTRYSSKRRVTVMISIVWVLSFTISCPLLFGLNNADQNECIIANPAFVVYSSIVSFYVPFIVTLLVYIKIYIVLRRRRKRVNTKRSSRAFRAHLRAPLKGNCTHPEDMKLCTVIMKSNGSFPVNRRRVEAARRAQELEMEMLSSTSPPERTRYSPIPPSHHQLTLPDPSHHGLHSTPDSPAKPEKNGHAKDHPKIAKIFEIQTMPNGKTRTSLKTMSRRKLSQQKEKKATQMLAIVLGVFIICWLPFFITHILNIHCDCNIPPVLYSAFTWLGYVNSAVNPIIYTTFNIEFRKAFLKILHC

[7] = target: Gastrin/cholecystokinin type B receptor (Homo sapiens) (UniProt P32239); assay: Displacement of [125I]CCK-8 from recombinant full length human recombinant CCK2 expressed in Chem-1 cells at 10 uM measured after 3 hrs by radiometric scintillation analysis relative to control; assay type: cell-based
[8] = target: Calcitonin gene-related peptide type 1 receptor (Homo sapiens) (UniProt Q16602); assay: Inhibition of human AM1 receptor at 10 uM relative to control
[9] = target: Alpha-2B adrenergic receptor (Homo sapiens) (UniProt P18089); assay: Displacement of [3H]rauwolscine from full-length recombinant human alpha2B receptor expressed in CHOK1 cells at 10 uM measured after 60 mins by scintillation counting method relative to control; assay type: cell-based; details: CHO-K1
[10] = target: Epidermal growth factor receptor (Homo sapiens, UniProt P00533); assay: Inhibition of human EGFR (668 to 1210 residues) expressed in insect cells at 10 uM using Poly(Glu:Tyr) as substrate after 30 mins by radiometric scintillation analysis relative to control
CDK9/cyclin T1 = CDK9/cyclin T1 (Homo sapiens, UniProt P50750); assay: Inhibition of recombinant full length human His-tagged CDK9/CyclinT1 expressed in baculovirus expression system using CDK7/9tide peptide as substrate incubated for 60 mins in presence of ATP by Adapta assay
Chain of CDK9/cyclin T1 (O60563 whole entry, the tested form may be a part): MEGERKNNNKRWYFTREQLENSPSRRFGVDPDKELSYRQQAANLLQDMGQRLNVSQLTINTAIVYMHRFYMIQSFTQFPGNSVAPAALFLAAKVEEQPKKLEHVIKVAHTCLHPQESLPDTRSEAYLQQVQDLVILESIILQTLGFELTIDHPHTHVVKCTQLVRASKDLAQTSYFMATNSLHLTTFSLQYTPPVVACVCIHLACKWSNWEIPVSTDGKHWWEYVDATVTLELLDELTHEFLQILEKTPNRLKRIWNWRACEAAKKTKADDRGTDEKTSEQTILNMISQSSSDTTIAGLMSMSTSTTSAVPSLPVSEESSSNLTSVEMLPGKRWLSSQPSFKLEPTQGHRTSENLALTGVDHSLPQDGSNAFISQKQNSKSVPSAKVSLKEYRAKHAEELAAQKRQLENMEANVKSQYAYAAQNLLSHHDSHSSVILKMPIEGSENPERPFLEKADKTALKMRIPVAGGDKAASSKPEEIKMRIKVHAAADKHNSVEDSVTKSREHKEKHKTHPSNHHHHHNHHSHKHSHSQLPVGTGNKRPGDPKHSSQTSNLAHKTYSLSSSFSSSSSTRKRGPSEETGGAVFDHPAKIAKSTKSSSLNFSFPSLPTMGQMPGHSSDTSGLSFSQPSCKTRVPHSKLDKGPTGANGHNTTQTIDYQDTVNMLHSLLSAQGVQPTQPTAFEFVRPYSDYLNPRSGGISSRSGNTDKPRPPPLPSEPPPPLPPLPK
Chain of CDK9/cyclin T1 (P50750 whole entry, the tested form may be a part): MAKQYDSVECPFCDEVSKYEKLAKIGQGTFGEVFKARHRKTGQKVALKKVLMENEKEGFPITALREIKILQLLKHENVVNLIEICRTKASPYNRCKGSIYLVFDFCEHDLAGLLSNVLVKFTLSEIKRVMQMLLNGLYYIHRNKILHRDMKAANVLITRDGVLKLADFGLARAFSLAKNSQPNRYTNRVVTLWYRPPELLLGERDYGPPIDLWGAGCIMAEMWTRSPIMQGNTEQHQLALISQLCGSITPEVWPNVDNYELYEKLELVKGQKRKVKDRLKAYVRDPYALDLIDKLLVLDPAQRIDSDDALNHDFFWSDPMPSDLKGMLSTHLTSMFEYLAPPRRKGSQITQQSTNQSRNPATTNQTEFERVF

[11] = target: Fibroblast growth factor receptor 1 (Homo sapiens, UniProt P11362); assay: Inhibition of recombinant His-tagged human FGFR1 cytoplasmic domain expressed in baculovirus expression system using Tyr 04 peptide as substrate after 1 hr in presence of ATP by Z'-LYTE assay
[12] = target: Vascular endothelial growth factor receptor 1 (Homo sapiens, UniProt P17948); assay: Inhibition of recombinant human GST-tagged FLT1 catalytic domain (781 to 1338 residues) expressed in baculovirus expression system using tyrosine-4 peptide as substrate incubated for 60 mins in presence of ATP by Z'-LYTE assay
Chain of Vascular endothelial growth factor receptor 1 (P17948 whole entry, the tested form may be a part): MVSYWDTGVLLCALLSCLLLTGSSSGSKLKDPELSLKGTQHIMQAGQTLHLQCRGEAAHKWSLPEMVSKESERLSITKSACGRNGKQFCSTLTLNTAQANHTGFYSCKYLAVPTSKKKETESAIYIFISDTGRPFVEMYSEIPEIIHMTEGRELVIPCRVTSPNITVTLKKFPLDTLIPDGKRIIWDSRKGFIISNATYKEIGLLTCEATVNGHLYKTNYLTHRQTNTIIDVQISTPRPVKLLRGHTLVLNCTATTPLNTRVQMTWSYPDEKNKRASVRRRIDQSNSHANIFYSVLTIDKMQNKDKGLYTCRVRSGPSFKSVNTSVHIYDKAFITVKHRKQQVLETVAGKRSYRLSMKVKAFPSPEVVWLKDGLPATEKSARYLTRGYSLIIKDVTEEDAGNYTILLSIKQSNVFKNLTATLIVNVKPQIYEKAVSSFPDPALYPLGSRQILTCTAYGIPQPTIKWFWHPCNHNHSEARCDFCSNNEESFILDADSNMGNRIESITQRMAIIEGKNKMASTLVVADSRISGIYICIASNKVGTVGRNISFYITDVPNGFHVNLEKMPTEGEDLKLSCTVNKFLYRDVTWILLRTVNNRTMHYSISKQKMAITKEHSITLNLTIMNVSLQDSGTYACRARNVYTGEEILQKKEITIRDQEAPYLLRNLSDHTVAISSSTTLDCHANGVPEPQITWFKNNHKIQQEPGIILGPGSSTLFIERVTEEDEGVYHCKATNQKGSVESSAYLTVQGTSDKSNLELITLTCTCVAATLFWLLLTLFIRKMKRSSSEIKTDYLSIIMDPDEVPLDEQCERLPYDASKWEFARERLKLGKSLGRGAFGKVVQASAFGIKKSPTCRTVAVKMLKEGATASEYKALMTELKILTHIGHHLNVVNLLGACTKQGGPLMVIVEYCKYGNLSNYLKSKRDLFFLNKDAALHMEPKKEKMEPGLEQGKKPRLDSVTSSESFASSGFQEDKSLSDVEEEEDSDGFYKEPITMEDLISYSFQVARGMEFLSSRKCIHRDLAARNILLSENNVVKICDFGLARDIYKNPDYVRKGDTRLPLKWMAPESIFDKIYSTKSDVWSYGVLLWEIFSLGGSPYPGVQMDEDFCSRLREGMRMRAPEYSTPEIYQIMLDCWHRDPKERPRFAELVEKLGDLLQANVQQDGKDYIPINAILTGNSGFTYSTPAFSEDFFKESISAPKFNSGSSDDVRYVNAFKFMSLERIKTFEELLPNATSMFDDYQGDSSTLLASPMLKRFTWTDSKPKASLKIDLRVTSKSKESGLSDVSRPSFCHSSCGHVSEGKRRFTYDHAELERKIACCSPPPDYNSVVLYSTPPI

[13] = target: Tyrosine-protein kinase FRK (Homo sapiens, UniProt P42685); assay: Inhibition of recombinant full length GST-tagged human FRK expressed in baculovirus expression system using tyrosine 1 as substrate after 1 hr in presence of ATP by ZYLTE assay
[14] = target: T1, Tyrosine-protein kinase JAK2 (Homo sapiens, UniProt O60674); assay: Inhibition of human recombinant GST tagged JAK2 catalytic domain expressed in baculovirus expression system using Tyr6 peptide as substrate measured after 1 hr in presence of ATP by Z'-LYTE assay
T1 sequence (O60674 whole entry, the tested form may be a part): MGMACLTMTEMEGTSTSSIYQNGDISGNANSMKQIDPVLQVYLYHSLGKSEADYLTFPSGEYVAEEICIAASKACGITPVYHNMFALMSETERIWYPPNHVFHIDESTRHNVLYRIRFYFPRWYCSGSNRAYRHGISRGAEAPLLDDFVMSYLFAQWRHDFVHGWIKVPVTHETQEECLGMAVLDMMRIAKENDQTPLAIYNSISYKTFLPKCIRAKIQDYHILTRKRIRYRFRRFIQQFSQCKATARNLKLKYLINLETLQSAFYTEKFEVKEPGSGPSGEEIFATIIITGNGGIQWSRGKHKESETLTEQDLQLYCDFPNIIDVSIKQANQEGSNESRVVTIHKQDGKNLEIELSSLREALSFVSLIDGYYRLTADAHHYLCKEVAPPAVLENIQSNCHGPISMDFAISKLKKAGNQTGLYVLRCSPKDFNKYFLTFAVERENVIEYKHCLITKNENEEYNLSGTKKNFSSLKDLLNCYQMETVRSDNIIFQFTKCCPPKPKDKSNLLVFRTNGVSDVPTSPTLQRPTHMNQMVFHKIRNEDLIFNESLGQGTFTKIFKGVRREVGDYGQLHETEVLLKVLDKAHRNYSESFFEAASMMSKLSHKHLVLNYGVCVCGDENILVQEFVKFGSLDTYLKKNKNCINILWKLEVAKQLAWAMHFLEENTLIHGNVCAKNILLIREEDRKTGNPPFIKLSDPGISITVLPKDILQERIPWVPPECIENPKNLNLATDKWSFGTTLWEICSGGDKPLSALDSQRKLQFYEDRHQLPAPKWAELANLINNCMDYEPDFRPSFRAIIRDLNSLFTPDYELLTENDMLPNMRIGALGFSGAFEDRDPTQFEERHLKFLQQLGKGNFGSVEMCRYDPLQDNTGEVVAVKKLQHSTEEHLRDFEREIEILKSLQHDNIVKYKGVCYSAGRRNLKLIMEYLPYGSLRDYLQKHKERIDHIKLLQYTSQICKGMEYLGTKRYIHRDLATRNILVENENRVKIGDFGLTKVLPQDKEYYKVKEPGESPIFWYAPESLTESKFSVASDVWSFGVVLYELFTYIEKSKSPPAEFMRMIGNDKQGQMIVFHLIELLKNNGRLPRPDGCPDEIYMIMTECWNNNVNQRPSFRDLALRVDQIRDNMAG

[15] = target: T1, Tyrosine-protein kinase JAK2; assay: Inhibition of recombinant GST-tagged human JAK2-JH1/JH2 domain (574 to 1154 residues) expressed in baculovirus expression system using Tyr 06 as substrate after 1 hr in presence of ATP by Z'LYTE assay
[16] = target: Dual specificity mitogen-activated protein kinase kinase 2 (Homo sapiens, UniProt P36507); assay: Inhibition of recombinant full length human His-tagged MEK2 expressed in baculovirus expression system using serine/threonine-3 peptide as substrate incubated for 60 mins in presence of ATP by Z'-LYTE assay
[17] = target: Serine/threonine-protein kinase MARK2 (Homo sapiens, UniProt Q7KZI7); assay: Inhibition of recombinant full length human GST-tagged MARK2 expressed in baculovirus expression system using serine/threonine-21 peptide as substrate incubated for 60 mins in presence of ATP by Z'-LYTE assay
[18] = target: Hepatocyte growth factor receptor (Homo sapiens, UniProt P08581, M1250T); assay: Inhibition of human recombinant His-tagged cMET M1250T mutant cytoplasmic domain expressed in baculovirus expression system using tyrosine 6 peptide as substrate after 60 mins in presence of ATP FRET based Z'-LYTE assay
[19] = target: Myosin light chain kinase 2, skeletal/cardiac muscle (Homo sapiens, UniProt Q9H1R3); assay: Inhibition of recombinant full length human GST-tagged MYLK2 expressed in baculovirus expression system using […] peptide as substrate incubated for 60 mins in presence of ATP by Z'-LYTE assay
[20] = target: Platelet-derived growth factor receptor alpha (Homo sapiens, UniProt P16234); assay: Inhibition of recombinant human GST-tagged PDGFRalpha cytoplasmic domain (550 to 1089 residues) expressed in baculovirus expression system using tyrosine-4 peptide as substrate incubated for 60 mins in presence of ATP by Z'-LYTE assay
Chain of Platelet-derived growth factor receptor alpha (P16234 whole entry, the tested form may be a part): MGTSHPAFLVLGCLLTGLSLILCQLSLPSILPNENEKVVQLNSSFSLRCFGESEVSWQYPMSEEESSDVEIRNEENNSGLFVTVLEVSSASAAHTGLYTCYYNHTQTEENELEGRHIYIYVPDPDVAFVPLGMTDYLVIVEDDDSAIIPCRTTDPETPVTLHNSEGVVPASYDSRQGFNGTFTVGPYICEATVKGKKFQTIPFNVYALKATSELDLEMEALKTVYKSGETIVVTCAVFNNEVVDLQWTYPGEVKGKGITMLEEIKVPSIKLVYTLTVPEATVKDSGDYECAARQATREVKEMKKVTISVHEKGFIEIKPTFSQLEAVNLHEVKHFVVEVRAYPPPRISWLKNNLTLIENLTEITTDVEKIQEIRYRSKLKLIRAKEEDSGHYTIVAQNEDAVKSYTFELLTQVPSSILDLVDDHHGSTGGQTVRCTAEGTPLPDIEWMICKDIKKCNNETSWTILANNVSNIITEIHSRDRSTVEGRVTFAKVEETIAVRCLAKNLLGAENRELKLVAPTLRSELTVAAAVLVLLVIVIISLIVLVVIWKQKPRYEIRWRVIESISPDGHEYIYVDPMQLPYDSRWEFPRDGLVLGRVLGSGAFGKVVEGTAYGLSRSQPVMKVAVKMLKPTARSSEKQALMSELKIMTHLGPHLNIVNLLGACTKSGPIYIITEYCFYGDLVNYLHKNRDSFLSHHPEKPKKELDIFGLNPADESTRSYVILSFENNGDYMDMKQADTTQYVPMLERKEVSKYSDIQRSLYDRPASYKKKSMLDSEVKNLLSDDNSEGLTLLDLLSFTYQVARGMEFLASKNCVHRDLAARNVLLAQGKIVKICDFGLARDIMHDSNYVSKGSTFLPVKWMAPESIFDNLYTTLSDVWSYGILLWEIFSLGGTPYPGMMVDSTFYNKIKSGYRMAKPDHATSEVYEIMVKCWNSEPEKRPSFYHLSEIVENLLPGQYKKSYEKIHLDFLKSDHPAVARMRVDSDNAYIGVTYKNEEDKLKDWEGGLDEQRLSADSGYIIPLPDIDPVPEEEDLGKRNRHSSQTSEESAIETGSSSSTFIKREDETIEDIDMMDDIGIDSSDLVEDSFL

[21] = target: Serine/threonine-protein kinase pim-1 (Homo sapiens, UniProt P11309); assay: Inhibition of recombinant full length human His-tagged PIM1 expressed in baculovirus expression system using serine/threonine-7 peptide as substrate incubated for 60 mins in presence of ATP by Z'-LYTE assay
[22] = target: Protein kinase C theta type (Homo sapiens, UniProt Q04759); assay: Inhibition of recombinant full length human His-tagged PKCtheta expressed in baculovirus expression system using serine/threonine-7 peptide as substrate incubated for 60 mins in presence of ATP by Z'-LYTE assay
[23] = target: cAMP-dependent protein kinase catalytic subunit PRKX (Homo sapiens, UniProt P51817); assay: Inhibition of recombinant full length human GST-tagged PRKX expressed in baculovirus expression system using serine/threonine-1 peptide as substrate incubated for 60 mins in presence of ATP by Z'-LYTE assay
[24] = target: Serine/threonine-protein kinase 25 (Homo sapiens, UniProt O00506); assay: Inhibition of recombinant full length human GST-tagged YSK1 expressed in baculovirus expression system using serine/threonine-7 peptide as substrate incubated for 60 mins in presence of ATP by Z'-LYTE assay

`C[C@@H]1C[C@H]1C(=O)N1CCN(c2cnc(C#N)c(-c3cnn(C)c3)n2)C[C@H]1C` gave a Vd [1] of 1.1 L/kg, an IC50 [2] of over 30 µM and an IC50 [3] of 26.1 µM. It also gave an inhibition (Cavia porcellus) of 41%, an inhibition [4] of -4% and an inhibition [5] of -9%. The inhibition [6] was 0%, the inhibition [7] was -4% and the inhibition [8] was 10%. The inhibition [9] was 11%, the inhibition [10] was -9% and the IC50 (CDK9/cyclin T1) was over 100 µM. The IC50 [11] was over 100 µM, the IC50 [12] was over 100 µM and the IC50 [13] was over 100 µM. The IC50 [14] was over 100 µM, the IC50 [15] was over 100 µM and the IC50 [16] was over 100 µM. For the same compound, the IC50 [17] was over 100 µM, the IC50 [18] was over 100 µM and the IC50 [19] was over 100 µM. It also gave an IC50 [20] of over 100 µM, an IC50 [21] of over 100 µM and an IC50 [22] of over 100 µM. The IC50 [23] was over 100 µM and the IC50 [24] was over 100 µM.
